Experimental findings from ChEMBL document CHEMBL3612042 (J Med Chem, 2015) are described below.

Data set [1] relates to Mycobacterium tuberculosis. Nature of the data set: Antibacterial activity against Mycobacterium tuberculosis MDR4 measured at 7 to 14 days by broth microdilution method. It is filed as functional.
Data set [2] has as its system Mycobacterium tuberculosis. Nature of the data set: Antibacterial activity against Mycobacterium tuberculosis MDR2 measured at 7 to 14 days by broth microdilution method. It is filed as functional.
Data set [3] concerns Mycobacterium tuberculosis. The experiment in a line: Antibacterial activity against Mycobacterium tuberculosis MDR6 measured at 7 to 14 days by broth microdilution method. It is filed as functional.
Data set [4] has as its system Mycobacterium tuberculosis. The experiment in a line: Antibacterial activity against Mycobacterium tuberculosis MDR1 measured at 7 to 14 days by broth microdilution method. It is filed as functional.
Data set [5] deals with Mycobacterium tuberculosis. Nature of the data set: Antibacterial activity against Mycobacterium tuberculosis XDR2 measured at 7 to 14 days by broth microdilution method. It is filed as functional.
Data set [6] relates to Mycobacterium tuberculosis. The experiment in a line: Antibacterial activity against Mycobacterium tuberculosis MDR7 measured at 7 to 14 days by broth microdilution method. Type of data set: functional.
In data set [7] the test system is Mycobacterium tuberculosis. Nature of the data set: Antibacterial activity against Mycobacterium tuberculosis MDR8 measured at 7 to 14 days by broth microdilution method. Type of data set: functional.
Data set [8] relates to Mycobacterium tuberculosis. Nature of the data set: Antibacterial activity against Mycobacterium tuberculosis MDR3 measured at 7 to 14 days by broth microdilution method. It is filed as functional.
Data set [9] concerns Mycobacterium tuberculosis. The experiment in a line: Antibacterial activity against Mycobacterium tuberculosis XDR1 measured at 7 to 14 days by broth microdilution method. Type of data set: functional.
For data set [10], the system named is Mycobacterium tuberculosis. Nature of the data set: Antibacterial activity against Mycobacterium tuberculosis MDR5 measured at 7 to 14 days by broth microdilution method. It is filed as functional.
Data set [11] has as its system Mycobacterium tuberculosis. Nature of the data set: Antibacterial activity against Mycobacterium tuberculosis H37Rv measured at 10 to 14 days by broth microdilution method. It is filed as functional.
Data set [12] deals with T1, Biotin--[acetyl-CoA-carboxylase] ligase (Mycobacterium tuberculosis (strain ATCC 25618 / H37Rv), UniProt I6YFP0).
T1 sequence (I6YFP0 whole entry): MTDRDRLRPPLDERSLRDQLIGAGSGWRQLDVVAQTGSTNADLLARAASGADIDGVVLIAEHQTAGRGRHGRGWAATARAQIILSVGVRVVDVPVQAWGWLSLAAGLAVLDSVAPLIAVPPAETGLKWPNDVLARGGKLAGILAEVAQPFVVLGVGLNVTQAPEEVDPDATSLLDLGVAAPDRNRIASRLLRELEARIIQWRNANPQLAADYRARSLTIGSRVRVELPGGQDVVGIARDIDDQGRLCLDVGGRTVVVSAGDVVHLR

Data set [13] relates to Mycobacterium tuberculosis H37Rv. Nature of the data set: Drug uptake in Mycobacterium tuberculosis H37Rv at 25 uM after 24 hrs by LC-MS/MS analysis. It is filed as ADME, organism-based.

In brackets after ≈: the same amount, converted by molar mass. A value given as a limit tells only on which side of the number the result lay.

Regarding `Nc1ncnc2c1ncn2[C@@H]1O[C@H](CNS(=O)(=O)NC(=O)CCCC[C@@H]2SC[C@@H]3NC(=O)N[C@@H]32)[C@@H](O)[C@H]1O`, the MIC99 in data set [1], in [2], in [3], in data set [4], in [5] and in data set [6] was 0.16 µM (≈ 0.0915 µg/mL) throughout. Also, the MIC99 in [7], in [8], in [9] and in data set [10] was 0.16 µM (≈ 0.0915 µg/mL) each time.

The compound `Nc1ncnc2c1ncn2[C@@H]1C[C@H](CNS(=O)(=O)NC(=O)CCCC[C@@H]2SC[C@@H]3NC(=O)N[C@@H]32)[C@@H](O)[C@H]1O` gave an MIC90 in [11] of more than 100 µM. The compound further displayed a Kd in [12] of 0.753 nM.

As to `[N-]=[N+]=N[C@@H]1[C@H](O)[C@@H](CNS(=O)(=O)NC(=O)CCCC[C@@H]2SC[C@@H]3NC(=O)N[C@@H]32)O[C@H]1n1cnc2c(N)ncnc21`, the MIC90 in data set [11] came out at 3.12 µM (≈ 1.86 µg/mL). The compound further returned a Kd in data set [12] of 0.933 nM.

In the case of `Nc1ncnc2c1ncn2[C@@H]1O[C@H](CNS(=O)(=O)NC(=O)CCCC[C@@H]2SC[C@@H]3NC(=O)N[C@@H]32)[C@@H](O)[C@H]1N`, the MIC90 in data set [11] was determined as 1.25 µM (≈ 0.713 µg/mL). Moreover, the Kd in data set [12] is 0.627 nM.

`CCN(CC)CC.Nc1ncnc2c1ncn2[C@@H]1O[C@H](CNS(=O)(=O)NC(=O)CCCC[C@@H]2SC[C@@H]3NC(=O)N[C@@H]32)[C@@H](O)[C@H]1F` came in with an MIC90 in [11] of 1.25 µM. Further, the Drug uptake entry in [13] is “Active”. In data set [12], binding was characterised by a dissociation constant (Kd) of 0.614 nM.

On to `Nc1ncnc2c1ncn2[C@H]1C=C[C@@H](CNS(=O)(=O)NC(=O)CCCC[C@@H]2SC[C@@H]3NC(=O)N[C@@H]32)C1`, for which the MIC90 in data set [11] amounted to 3.12 µM (≈ 1.67 µg/mL). In data set [12], this compound yielded a Kd of 2.14 nM.

In data set [11], `CCN(CC)CC.Nc1ncnc2c1ncn2[C@@H]1O[C@H](COS(=O)(=O)NC(=O)CCCC[C@@H]2SC[C@@H]3NC(=O)N[C@@H]32)[C@@H](O)[C@@H]1F` showed an MIC90 of 50 µM. Besides, the Drug uptake result in data set [13] is reported as “Active”. Binding in data set [12] was put at a Kd of 0.153 nM.

As to `C[C@@]1(O)[C@H](O)[C@@H](COS(=O)(=O)NC(=O)CCCC[C@@H]2SC[C@@H]3NC(=O)N[C@@H]32)O[C@H]1n1cnc2c(N)ncnc21`, the MIC90 in [11] was determined as 50 µM (≈ 29.3 µg/mL). In [12], the Kd was determined as 0.769 nM.

Compound `Nc1ncnc2c1ncn2[C@H]1CNC[C@@H](COS(=O)(=O)NC(=O)CCCC[C@@H]2SC[C@@H]3NC(=O)N[C@@H]32)O1` displayed an MIC90 in data set [11] of 3.12 µM (≈ 1.73 µg/mL). The compound further yielded a Kd in [12] of 0.324 nM.

Compound `Nc1ncnc2c1ncn2[C@@H]1O[C@H](CNS(=O)(=O)NC(=O)CCCC[C@@H]2SC[C@@H]3NC(=O)N[C@@H]32)C[C@H]1O` came in with an MIC90 in data set [11] of 0.78 µM (≈ 0.433 µg/mL). In [12], this compound had a Kd of 0.592 nM.

For the compound `Nc1ncnc2c1ncn2[C@H]1CC[C@@H](CNS(=O)(=O)NC(=O)CCCC[C@@H]2SC[C@@H]3NC(=O)N[C@@H]32)C1`, in [11], the MIC90 worked out at 1.56 µM (≈ 0.839 µg/mL). The Kd in data set [12] was determined as 0.54 nM.
